In BindingDB's records for doi:10.1016/j.bmc.2019.115216 (National and Kapodistrian University of Athens, 2020):

Target: Autotaxin (ENPP2) (Mus musculus) (UniProt Q9R1E6)
Experiment: Inhibition of recombinant mouse N-terminal polyHis-tagged ATX-beta (Ser49 to Ile862 residues) expressed in HEK293 cells assessed as reduction in cleavage of LPC into LPA and choline using LPC(16:0) as substrate by Amplex red reagent based fluorescence assay

O=C(O)c1ccc(COc2ccc(CNC(=O)[C@@H]3CCC(=O)N3Cc3ccccc3)cc2)cc1
IC50: 4.5 µM

O=C(O)c1ccc(COc2ccc(CNC(=O)[C@H]3CCC(=O)N3Cc3ccccc3)cc2)cc1
IC50: > 5 µM

O=C(O)c1ccc(COc2ccc(CNC(=O)[C@@H]3CCC(=O)N3Cc3ccc(Br)cc3)cc2)cc1
IC50: > 5 µM

O=C(O)c1ccc(COc2ccc(CNC(=O)[C@@H]3CCC(=O)N3Cc3ccc(F)cc3)cc2)cc1
IC50: > 5 µM

O=C(O)c1ccc(COc2ccc(CNC(=O)[C@@H]3CCC(=O)N3Cc3ccc(C(F)(F)F)cc3)cc2)cc1
IC50: > 5 µM

O=C1CC[C@@H](C(=O)NCc2ccc(OCc3ccc(C(=O)O)cc3)cc2)N1
IC50: > 5 µM

COC(=O)c1ccc(COc2ccc(CNC(=O)[C@@H]3CCC(=O)N3Cc3ccccc3)cc2)cc1
IC50: > 5 µM

NS(=O)(=O)c1ccc(COc2ccc(CNC(=O)[C@@H]3CCC(=O)N3Cc3ccccc3)cc2)cc1
IC50: > 5 µM

NS(=O)(=O)c1ccc(COc2ccc(CNC(=O)[C@@H]3CCC(=O)N3Cc3ccc(F)cc3)cc2)cc1
IC50: > 5 µM

NS(=O)(=O)c1ccc(COc2ccc(CNC(=O)[C@@H]3CCC(=O)N3Cc3ccc(C(F)(F)F)cc3)cc2)cc1
IC50: > 5 µM

CC1(C)OB(c2ccc(COc3ccc(CNC(=O)[C@@H]4CCC(=O)N4Cc4ccccc4)cc3)cc2)OC1(C)C
IC50: 0.05 µM

CC1(C)OB(c2ccc(COc3ccc(CNC(=O)[C@@H]4CCC(=O)N4Cc4ccc(F)cc4)cc3)cc2)OC1(C)C
IC50: 0.12 µM

CC1(C)OB(c2ccc(COc3ccc(CNC(=O)[C@H]4CCC(=O)N4Cc4ccccc4)cc3)cc2)OC1(C)C
IC50: 0.18 µM

O=C(NCc1ccc(OCc2ccccc2)cc1)[C@@H]1CCC(=O)N1Cc1ccccc1
IC50: > 5 µM

O=C(NCCc1c[nH]cn1)c1ccc(COc2ccc(CNC(=O)[C@@H]3CCC(=O)N3Cc3ccccc3)cc2)cc1
IC50: > 5 µM

O=C(NCCc1c[nH]cn1)c1ccc(COc2ccc(CNC(=O)[C@@H]3CCC(=O)N3Cc3ccc(F)cc3)cc2)cc1
IC50: > 5 µM

O=C(NO)c1ccc(COc2ccc(CNC(=O)[C@@H]3CCC(=O)N3Cc3ccccc3)cc2)cc1
IC50: 0.7 µM

O=C(NCc1ccc(OCc2ccc(-c3nn[nH]n3)cc2)cc1)[C@@H]1CCC(=O)N1Cc1ccccc1
IC50: > 5 µM

O=C(NCc1ccc(OCc2ccc(-c3nn[nH]n3)cc2)cc1)[C@@H]1CCC(=O)N1Cc1ccc(F)cc1
IC50: > 5 µM

O=C(NCc1ccc(OCc2cn(-c3ccccc3)nn2)cc1)[C@@H]1CCC(=O)N1Cc1ccccc1
IC50: > 5 µM

O=C(NCc1ccc(OCc2ccncc2)cc1)[C@@H]1CCC(=O)N1Cc1ccccc1
IC50: > 5 µM

O=C(NCc1ccc(OCc2ccc(B(O)O)cc2)cc1)[C@@H]1CCC(=O)N1Cc1ccccc1
IC50: 0.035 µM

O=C(O)c1ccc(COc2ccc(CN3C(=O)CC[C@H]3C(=O)NCc3ccccc3)cc2)cc1
IC50: > 5 µM

O=C(NCc1ccccc1)[C@@H]1CCC(=O)N1Cc1ccc(OCc2ccc(-c3nn[nH]n3)cc2)cc1
IC50: > 5 µM

NS(=O)(=O)c1ccc(C(=O)NC[C@@H]2CCC(=O)N2Cc2ccccc2)cc1
IC50: > 5 µM

COC(=O)c1ccc(COc2ccc(CN3C(=O)CC[C@H]3Cn3ccnc3)cc2)cc1
IC50: > 5 µM

O=C(O)c1ccc(COc2ccc(CN3C(=O)CC[C@H]3Cn3ccnc3)cc2)cc1
IC50: > 5 µM

O=C(NCc1ccccc1)[C@@H]1CCC(=O)N1Cc1ccccc1
IC50: > 5 µM

O=C(NCc1ccc(O)cc1)[C@@H]1CCC(=O)N1Cc1ccccc1
IC50: > 5 µM

O=C(O)c1ccc(COc2ccc(CNC(=O)[C@@H]3CCCN3Cc3ccccc3)cc2)cc1
IC50: > 5 µM

O=C(O)c1ccc(COc2ccc(CNC(=O)[C@@H]3CCCN3Cc3ccc(F)cc3)cc2)cc1
IC50: 0.8 µM

O=C(O)c1ccc(COc2ccc(CNC(=O)[C@H]3CCCN3Cc3ccc(F)cc3)cc2)cc1
IC50: > 5 µM

O=C(NCc1ccc(OCc2ccc(-c3nn[nH]n3)cc2)cc1)[C@@H]1CCCN1Cc1ccccc1
IC50: > 5 µM

O=C(O)c1ccc(COc2ccc(CN3CCC[C@H]3C(=O)NCc3ccccc3)cc2)cc1
IC50: > 5 µM

O=C(NCc1ccccc1)[C@@H]1CCCN1Cc1ccc(OCc2ccc(-c3nn[nH]n3)cc2)cc1
IC50: > 5 µM
